According to patent publication US20260345517A1, “DOSAGE REGIMENS FOR TREATING STARGARDT DISEASE” (Alkeus Pharmaceuticals, Inc., priority 2024, published 2026):

How the values were obtained:
[1] = Open-label multiple dose pharmacokinetic study in healthy volunteers (percentage of deuterated vitamin A in plasma, LC/MS); assay type: in vivo, human; conditions: fasting
Protocol: Study Design: This was an open-label, non-randomized, multiple dose study in healthy volunteers aged 21 to 70 years of age (inclusion criteria). Subjects who met all entrance criteria at screening were invited to receive the study medication. There were six treatment arms: 2 mg/day, 3.5 mg/day, 5 mg/day, 7 mg/day, 10 mg/day and 14 mg/day gildeuretinol acetate. For the four lower dose groups, the dose regimen was one capsule per day, orally, to be taken at home, preferably in the evening unless a different time was preferred by the subject. For the two highest doses, the dose regimen was two capsules per day, one in the morning and one in the evening, although subjects with a preference to take both capsules at once were offered to do so. After taking the 1st dose at the study site, subjects were invited to return two and four weeks after starting the treatment.
The clinical staff made periodic calls to monitor adverse events and ensure subject compliance. In addition, a text message was sent daily to remind subjects to take their medication. Subjects were instructed to avoid foods that contain large amounts of vitamin A (such as liver-based products), including supplements containing vitamin A, and to report their vitamin A intake by answering a daily text message diary. Fruits and vegetables were permitted without restriction.
Deuterated retinol (gildeuretinol) (“D3”) and non-deuterated retinol (“Do”) and other vitamin A metabolites were measured to calculate the percentage of deuterated vitamin A in plasma. For all treatment groups, plasma samples were collected at baseline, 14±1 days (“2 weeks”) and 28±1 days (“4 weeks”) after initiation of treatment. Blood samples were usually collected following at least 10 hours of fasting (including last gildeuretinol acetate intake), preferably in the morning. For the 7 mg/day and the 14 mg/day groups only, after the first and last dose, blood samples were collected every 4 hours for 24 hours. A liquid chromatography/mass spectrometry assay was used to measure the metabolite levels.
Table 2 provides % D3 Retinol (gildeuretinol, i.e. the percentage of deuterated retinol (gildeuretinol) over total retinol (as deuterated+non-deuterated) in plasma measured 12-24 hours following gildeuretinol acetate intake.
Pharmacokinetic Results (integrated levels over 24 hours post dosing): total vitamin A in plasma, both deuterated (gildeuretinol) and non-deuterated (retinol), was measured every 4 hours following administration of 7 mg or 14 mg at the first dose, and following administration of the 28th dose (4 weeks of daily treatment). The area under the curve (AUC) was calculated and the % deuterated % D3 of total vitamin A (as retinol and gildeuretinol) was computed as an average over 24 hours.

[2] = TEASE-3: plasma gildeuretinol (replacement of plasma vitamin A); assay type: in vivo, human; conditions: 14 mg daily, after the first two months, all three participants
Protocol: The tolerability and effects of gildeuretinol acetate in Stargardt Disease (Clinical trial group 3 also known as TEASE-3) study was an open-label, multicenter, case control study designed to evaluate the efficacy and safety of gildeuretinol acetate on the progression of Stargardt disease in asymptomatic individuals. The trial was conducted at multiple sites in the United States.
To assess the safety and efficacy of gildeuretinol acetate in preventing vision loss in asymptomatic individuals, gildeuretinol acetate 14 mg capsules was administered to individuals showing early signs of retinal damage while maintaining approximately 20/20 vision and no subjective loss of vision. […] Based on the above family history and clinical observations, the individuals were likely to develop retinal lesions, loss of photoreceptors, drops in retinal sensitivity, loss of visual acuity, indicating the onset of symptoms, i.e. a progression to the symptomatic phase, including vision loss within two years, mirroring the progression observed in their older siblings.
Patients received gildeuretinol acetate 14 mg capsules, to be taken orally once daily. Trial visits occurred every 6 months approximately following screening and treatment start visits.

What does the source list for CC1=C(/C=C/C(C)=C/C=C/C(C)=C/CO)C(C)(C)CCC1 [gildeuretinol, C20D3-retinol]?
% gildeuretinol over retinol + gildeuretinol in plasma ([1]; 2 mg/day, after 2 weeks of treatment): 27%; % gildeuretinol over retinol + gildeuretinol in plasma ([1]; 2 mg/day, after 4 weeks of treatment): 31%; % gildeuretinol over retinol + gildeuretinol in plasma ([1]; 3.5 mg/day, after 2 weeks of treatment): 39%; % gildeuretinol over retinol + gildeuretinol in plasma ([1]; 3.5 mg/day, after 4 weeks of treatment): 46%; % gildeuretinol over retinol + gildeuretinol in plasma ([1]; 5 mg/day, after 2 weeks of treatment): 53%; % gildeuretinol over retinol + gildeuretinol in plasma ([1]; 5 mg/day, after 4 weeks of treatment): 51%; % gildeuretinol over retinol + gildeuretinol in plasma ([1]; 7 mg/day, 24 hours post 1st dose): 27%; % gildeuretinol over retinol + gildeuretinol in plasma ([1]; 7 mg/day, after 2 weeks of treatment): 55%; % gildeuretinol over retinol + gildeuretinol in plasma ([1]; 7 mg/day, after 4 weeks of treatment): 63%; % gildeuretinol over retinol + gildeuretinol in plasma ([1]; 10 mg/day, after 2 weeks of treatment): 66%; % gildeuretinol over retinol + gildeuretinol in plasma ([1]; 10 mg/day, after 4 weeks of treatment): 72%; % gildeuretinol over retinol + gildeuretinol in plasma ([1]; 14 mg/day, 24 hours post 1st dose): 41%; % gildeuretinol over retinol + gildeuretinol in plasma ([1]; 14 mg/day, after 2 weeks of treatment): 64%; % gildeuretinol over retinol + gildeuretinol in plasma ([1]; 14 mg/day, after 4 weeks of treatment): 79%; replacement of plasma vitamin A (retinol + gildeuretinol) with gildeuretinol [2]: 80%
